The results in this text go back to US20250171462A1 (NICO Therapeutics, Inc., priority 2022, published 2025).

For this test, the target named is T1, full-length SARM1 (FL-SARM1) (Homo sapiens, UniProt Q6SZW1).
T1 sequence (Q6SZW1 28-724): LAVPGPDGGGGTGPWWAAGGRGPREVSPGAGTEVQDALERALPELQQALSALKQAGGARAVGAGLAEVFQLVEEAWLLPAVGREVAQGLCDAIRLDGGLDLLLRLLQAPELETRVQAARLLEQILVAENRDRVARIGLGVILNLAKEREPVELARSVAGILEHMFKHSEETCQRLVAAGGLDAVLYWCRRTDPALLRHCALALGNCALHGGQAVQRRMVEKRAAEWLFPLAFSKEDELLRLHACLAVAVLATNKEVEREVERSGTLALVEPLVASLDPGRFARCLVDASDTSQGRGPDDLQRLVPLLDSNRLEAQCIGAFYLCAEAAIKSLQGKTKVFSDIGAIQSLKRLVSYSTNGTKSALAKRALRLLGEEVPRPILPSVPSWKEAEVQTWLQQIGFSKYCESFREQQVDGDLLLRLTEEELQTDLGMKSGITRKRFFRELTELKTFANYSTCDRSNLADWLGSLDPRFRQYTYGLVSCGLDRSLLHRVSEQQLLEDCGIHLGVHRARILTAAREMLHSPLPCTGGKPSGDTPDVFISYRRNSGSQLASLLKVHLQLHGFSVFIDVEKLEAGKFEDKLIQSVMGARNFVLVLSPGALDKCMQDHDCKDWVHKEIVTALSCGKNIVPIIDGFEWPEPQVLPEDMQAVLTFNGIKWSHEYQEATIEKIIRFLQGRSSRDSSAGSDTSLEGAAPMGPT
The experiment in a line: FL-SARM1 cellular lysate assay (NAD/NADH-Glo detection of remaining NAD+, NMN-activated). The note with it: for IC50: Activity (μM) (IC50).

Where [1] appears, read: Activity (IC50 class), 11 point curve.
[2] abbreviates: read-out: Activity (IC50 class), 11 point curve.

Structures are written as SMILES. pIC50: −log10 of the molar value. Read-outs that look alike come from different tables or passages of the source. Bounds are passed on as bounds.

The pIC50 is −log10 of the IC50, conventionally taken in molar units. The IC50 is the concentration that inhibits the measured activity by half.

Turning to `Cc1ccc(NC(=O)[C@H]2C[C@@H]3[C@H](C2)C3(F)F)cc1-c1cccnn1` [Example 177, cis-6,6-difluoro-N-(4-methyl-3-(pyridazin-3-yl)phenyl)bicyclo[3.1.0]hexane-3-carboxamide], the pIC50 under setting [1] is under 5.00. This molecule also displayed a half-inhibitory concentration (IC50) (11 point curve) of 23 µM.
Molecule `Cc1ccc(NC(=O)N2C3CCCC2C3)cc1-c1ncc(Cl)cn1` [Example 252, N-[3-(5-chloropyrimidin-2-yl)-4-methylphenyl]-6-azabicyclo[3.1.1]heptane-6-carboxamide] registered an IC50 (11 point curve) of 0.5 µM. The pIC50 under setting [2] is 6.00 to 10.00.
Take `Cc1ccc(-c2cc(NC(=O)N3[C@@H]4C[C@@H](C)C[C@H]3C4)ccc2C)nn1` [Example 242, cis-3-methyl-N-[4-methyl-3-(6-methylpyridazin-3-yl)phenyl]-6-azabicyclo[3.1.1]heptane-6-carboxamide]: inhibition (11 point curve) was half-maximal at 0.07 µM (IC50). For the same molecule, the negative logarithm of the IC50 (pIC50) under setting [2] was 6.00 to 10.00.
`O=C(Nc1ccc(C(F)(F)F)c(-c2ncc(F)cn2)c1)N1CCCC2CC2C1` (centres unmarked) [Example 304, N-(3-(5-fluoropyrimidin-2-yl)-4-(trifluoromethyl)phenyl)-3-azabicyclo[5.1.0]octane-3-carboxamide] had a pIC50 under setting [1] of 5.00 to 6.00. Where the note is “11 point curve”, it took 2.4 µM to reach half-maximal inhibition (IC50).
Consider `Cc1ccc(NC(=O)N2C[C@H]3C[C@@H]2CN3c2ccccc2)cc1-c1ccccn1` [Example 38, (1R,4R)-N-(4-methyl-3-(pyridin-2-yl)phenyl)-5-phenyl-2,5-diazabicyclo[2.2.1]heptane-2-carboxamide], for which, under setting [1], the pIC50 was 5.00 to 6.00. Besides, under “11 point curve”, the midpoint of inhibition, the IC50, lay at 7.7 µM.
`Cc1ccc(NC(=O)N2[C@@H]3C[C@@H](C)C[C@H]2C3)cc1-c1ncccn1` [Example 223, cis-3-methyl-N-(4-methyl-3-pyrimidin-2-ylphenyl)-6-azabicyclo[3.1.1]heptane-6-carboxamide] returned an IC50 (11 point curve) of 0.04 µM. In addition, under setting [2], the pIC50 was 6.00 to 10.00.
In the case of `Cc1ccc(NC(=O)[C@H]2CC[C@H](C)N2c2ccccn2)cc1-c1ncc(F)cn1` [Example 281, (2R,5S)-N-[3-(5-fluoropyrimidin-2-yl)-4-methylphenyl]-5-methyl-1-pyridin-2-ylpyrrolidine-2-carboxamide], under setting [1], the pIC50 is 5.00 to 6.00. Under “11 point curve”, the IC50 was 1.3 µM.
Under setting [1], `Cc1ccc(NC(=O)[C@@H]2CC[C@@H](C3CC3)N2c2ccccn2)cc1-c1ncc(F)cn1` (racemic) [Example 274, trans-5-cyclopropyl-N-(3-(5-fluoropyrimidin-2-yl)-4-methylphenyl)-1-(pyridin-2-yl)pyrrolidine-2-carboxamide] showed a pIC50 of 5.00 to 6.00. This molecule registered an IC50 (11 point curve) of 1.2 µM.
As for `CO[C@@H]1C[C@@H]2C[C@H](C1)N2C(=O)Nc1ccc(C)c(-c2ccccn2)c1` [Example 41, cis-3-methoxy-N-(4-methyl-3-(pyridin-2-yl)phenyl)-6-azabicyclo[3.1.1]heptane-6-carboxamide], the IC50 (11 point curve) turned out to be 0.5 µM. The negative-log IC50 (pIC50) under setting [2] is 6.00 to 10.00.
For `Cc1ccc(NC(=O)N2C3C[C@H](C#N)C[C@@H]2C3)cc1-c1ccccn1` [Example 74, cis-3-cyano-N-(4-methyl-3-(pyridin-2-yl)phenyl)-6-azabicyclo[3.1.1]heptane-6-carboxamide] the same measures were 0.3 µM and 6.00 to 10.00.
`COC(C)[C@@]12CC(C[C@@H](C)C1)N2C(=O)Nc1ccc(C(F)(F)F)c(-c2nccnn2)c1` (single isomer, unassigned) [Example 210, cis-N-(3-(1,2,4-triazin-3-yl)-4-(trifluoromethyl)phenyl)-1-(1-methoxyethyl)-3-methyl-6-azabicyclo[3.1.1]heptane-6-carboxamide] had a pIC50 under setting [1] of under 5.00. Moreover, for the setting “11 point curve”, the IC50 is over 50 µM.
As for `Cc1ccc(NC(=O)C2CCCC2C)cc1-c1ccccn1` (centres unmarked) [Example 114, 2-methyl-N-(4-methyl-3-pyridin-2-ylphenyl)cyclopentane-1-carboxamide], 0.7 µM corresponded to half-maximal inhibition (11 point curve) (IC50). Besides, under setting [2], the pIC50 is 6.00 to 10.00.
For `Cc1cc(Cl)c(NC(=O)N2C3CCCC2C3)cc1-c1ccccn1` [Example 82, N-(2-chloro-4-methyl-5-pyridin-2-ylphenyl)-6-azabicyclo[3.1.1]heptane-6-carboxamide], under setting [1], the pIC50 is 5.00 to 6.00. The same molecule had an IC50 (11 point curve) of 1.5 µM.
In turn, `CC[C@H]1C[C@H]1C(=O)Nc1ccc(C)c(-c2ccccn2)c1` (single isomer, unassigned) [Example 110, cis-2-ethyl-N-(4-methyl-3-pyridin-2-ylphenyl)cyclopropane-1-carboxamide] had a pIC50 under setting [1] of 5.00 to 6.00. The molecule further came in with an IC50 (11 point curve) of 6 µM.
The matching figures for `Cc1cc(F)c(NC(=O)N2CCOc3cccnc3C2C)cc1-c1cccnn1` (centres unmarked) [Example 182, N-(2-fluoro-4-methyl-5-(pyridazin-3-yl)phenyl)-5-methyl-2,3-dihydropyrido[2,3-f][1,4]oxazepine-4(5H)-carboxamide]: 5.00 to 6.00 and 6 µM.
The matching figures for `Cc1ccc(NC(=O)[C@@H]2[C@@H]3CC[C@H]2N(CC(F)(F)F)C3)cc1-c1ccccn1` (single isomer, unassigned) [Example 104, trans-N-(4-methyl-3-(pyridin-2-yl)phenyl)-2-(2,2,2-trifluoroethyl)-2-azabicyclo[2.2.1]heptane-7-carboxamide]: 5.00 to 6.00 and 2.6 µM.
Under setting [1], `Cc1ccc(NC(=O)[C@H]2C[C@@H]2C2CC2)cc1-c1cccnn1` (racemic) [Example 283, trans-2-cyclopropyl-N-(4-methyl-3-pyridazin-3-ylphenyl)cyclopropane-1-carboxamide] had a pIC50 of under 5.00. The IC50 (11 point curve) was 11 µM.
Turning to `Cc1ccc(NC(=O)N2[C@@H]3C[C@@H](C)C[C@@]2(COC(F)F)C3)cc1-c1ncc(F)cn1` (racemic) [Example 227, cis-1-(difluoromethoxymethyl)-N-[3-(5-fluoropyrimidin-2-yl)-4-methylphenyl]-3-methyl-6-azabicyclo[3.1.1]heptane-6-carboxamide], for the setting “11 point curve”, it took 0.02 µM to reach half-maximal inhibition (IC50). For the same molecule, the pIC50 under setting [2] is 6.00 to 10.00.
In turn, `O=C(Nc1ccc(C2CC2)c(-c2ccc(F)cn2)c1)[C@@H]1CC1(F)F` [Example 155, (1S)-N-[4-cyclopropyl-3-(5-fluoropyridin-2-yl)phenyl]-2,2-difluorocyclopropane-1-carboxamide] gave a pIC50 under setting [1] of 5.00 to 6.00. Moreover, for the setting “11 point curve”, inhibition was half-maximal at 3.5 µM (IC50).
Consider `Cc1cc(F)c(NC(=O)N2CC3CC2c2ccccc23)cc1-c1cccnn1` (single isomer, unassigned) [Example 202, N-(2-fluoro-4-methyl-5-pyridazin-3-ylphenyl)-9-azatricyclo[6.2.1.02,7]undeca-2(7),3,5-triene-9-carboxamide], for which the IC50 (11 point curve) was 6.7 µM. Also, the pIC50 under setting [2] is 5.00 to 6.00.
As for `COc1ccc(-c2cc(NC(=O)[C@@H]3CC3(F)F)ccc2C)nc1` [Example 152, (1S)-2,2-difluoro-N-[3-(5-methoxypyridin-2-yl)-4-methylphenyl]cyclopropane-1-carboxamide], the pIC50 under setting [1] was 5.00 to 6.00. The molecule also returned an IC50 (11 point curve) of 3.6 µM.
The molecule `Cc1ccc(NC(=O)C(C)(C)C2CCC2)cc1-c1cccnn1` [Example 296, 2-cyclobutyl-2-methyl-N-(4-methyl-3-pyridazin-3-ylphenyl)propanamide] had a pIC50 under setting [1] of 5.00 to 6.00. This molecule also showed an IC50 (11 point curve) of 4.3 µM.
